From patent publication US9249157B2, “Tricyclic heterocycle compounds” (BRISTOL-MYERS SQUIBB COMPANY, priority 2012, dated 2016) come the findings set out here.

The subject of one data set is human Notch 3. Put plainly: Notch-CBF1 Transactivation Assay (Notch 3). The data set is classed as cell-based. Particulars: HeLa cells transfected with truncated Notch 3 and CBF1 luciferase reporter; 18 hours incubation. The text has this:
Notch-CBF1 Transactivation Assay
The Notch-CBF1 (C-promoter binding factor I) cell based transactivation assay is based on the ability of the released Notch intracellular domain fragments (NICDs) to function as transcription factors in conjunction with CBF1 and other nuclear factors. Luciferase assays were used to measure the antagonism of Notch-CBF1 transcriptional activity. HeLa cervical cancer cells are transiently co-transfected with pCDNA3.1/Hygro plasmids containing truncated Notch 1, Notch 2, Notch 3, or Notch 4 receptors and a PGL3 luciferase reporter vector containing 4 copies of CBF1 binding site. The cells were then tested for Notch-CBF1 activity in the absence or presence of test compounds. HeLa cells, maintained in DMEM (high glucose with HEPES), 1× glutamine/penicillin/streptomycin and 10% Fetal Bovine serum, were transiently transfected in a T175 Flask (4.5×10^6 cells/flask) using the Monster Transfection Kit (Minis #MIR2906) according to manufacturers specifications. Table 1 denotes respective DNA quantity for the transfections.
Six hours post-transfection, cells were trypsinized and plated into a 384-well black Poly-D-lysine coated tissue culture plate at a density of 5×10^3 cells/well in 95 μL assay media (DMEM (high glucose with HEPES), 1× glutamine/penicillin/streptomycin, 0.0125% BSA, 1× non-essential amino acids). Assay media (5 μL) containing test compounds in final concentrations ranging from 5 μM to 8.4×10^−5 μM (3 fold serial dilutions) were added to the cells and the cell plates were then incubated for 18 hours at 37° C. and 5% CO2. Control wells contained DMSO vehicle (total counts) or 0.5 μM of an in-house small molecule inhibitor (background counts). Duplicates were used for each sample. Luciferase activity was measured after a 20-minute incubation with 50 μl STEADY-GLO® luciferase reagents according to manufacturer's specifications (Promega, Cat. #E2550) and analyzed by Envision plate reader (PerkinElmer, Boston, Mass.).
The antagonist effect of compounds was expressed as 100×[1−(average sample−average background)/(average total−average background)] where sample is the luciferase activity in the presence of test compound, background is equal to the luciferase activity in the presence of the small molecule inhibitor control and the total is signal induced in DMSO wells.
On the technique in general: A reporter such as luciferase makes a cellular process visible.

In the next data set the test system is TALL1. Put plainly: Human Tumor Xenograft Models in Mice, TALL1. The data set is classed as in vivo. The note with it: 60 mg/kg, QDx10, oral administration; LCK = Log Cell Kill. The source says:
Human Tumor Xenograft Models in Mice
All rodents were obtained from Harlan Sprague Dawley Co. (Indianapolis, Ind.), and maintained in an ammonia-free environment in a defined and pathogen—free colony. All mice were quarantined approximately 1 week prior to their use for tumor propagation and drug efficacy testing. Mice were fed food and water ad libitum. The animal care program of Bristol-Myers Squibb Pharmaceutical Research Institute is fully accredited by the American Association for Accreditation of Laboratory Animal Care (AAALAC). All experiments were performed in accordance with Bristol-Myers Squibb (BMS) animal test methods and guidelines. […]
The required numbers of animals needed to detect a meaningful response were pooled at the start of the experiment and each was given a subcutaneous implant of a tumor fragment (˜20 mg) with a 13-gauge trocar. Tumors were allowed to grow to the pre-determined size window (tumors outside the range were excluded) and animals were evenly distributed to various treatment and control groups. […]
Tumor response was determined by measurement of tumors with a caliper twice a week, until the tumors reached a predetermined “target” size of 0.5 gm or 1 gm depending on the tumor type. […]
Tumor response criteria are expressed in terms of tumor growth inhibition (% TGI). […] For this purpose, the tumor weight of a group is expressed as […] tumor weight (MTW). […]
(A xenograft is tissue or cells of one species grown in another, often human tumour cells in immunodeficient mice.)

The nature of data set [1]: High Throughput Metabolic Stability Panel, monkey microsomes. The data set is classed as in vitro ADME. The note with it: 10 minute incubation, 0.5 μM, control compound expected range. Here is the method:
(§1) High Throughput (HT) Metabolic Stability Panel
(§2) The metabolic stability assay evaluated CYP-mediated metabolic stability in vitro using human, rat, mouse, dog, and/or monkey microsomes after a ten-minute incubation. Each compound was tested in duplicate.
(§3) Test compound was received as a 3.5 mM stock solution in 100 percent DMSO. The test compound was diluted to create a 50 μM acetonitrile (ACN) solution containing 1.4% DMSO, which was then used as a 100× stock for incubation with microsomes. Each compound was tested in duplicate separately in each of three species in the Metabolic Stability-Human, Rat, and Mouse assay suite or as individual species in the Metabolic Stability-Dog or Metabolic Stability-Monkey suites. Compound, NADPH, and liver microsome solutions were combined for incubation in three steps:
(§4) 1. 152 μl of liver microsome suspension, protein concentration of 1.1 mg/ml in 100 mM NaPi, pH 7.4, 5 mM MgCl2 buffer, was pre-warmed at 37° C.
(§5) 3. The reaction was initiated by the addition of 17 μl of pre-warmed 10 mM NADPH solution in 100 mM NaPi, pH 7.4.
(§6) The reaction components were mixed well, and 75 μl of the reaction mixture was immediately transferred into 150 μl quench/stop solution (zero-time point, T0). Reactions were incubated at 37° C. for 10 minutes and then an additional 75 μl aliquot was transferred into 150 μl quench solution. […]

A short description of data set [2]: High Throughput Metabolic Stability Panel, human microsomes. The note with it: 10 minute incubation, 0.5 μM, control compound expected range. Type of data set: in vitro ADME. The method, then:
as §1, §2, §3, §4, §5, §6

Data set [3] in a line: High Throughput Metabolic Stability Panel, mouse microsomes. Type of data set: in vitro ADME. Particulars: 10 minute incubation, 0.5 μM, control compound expected range. Here is the method:
as §1, §2, §3, §4, §5, §6

Data set [4] is described as follows: High Throughput Metabolic Stability Panel, dog microsomes. Type of data set: in vitro ADME. The note with it: 10 minute incubation, 0.5 μM, control compound expected range. Here is the method:
as §1, §2, §3, §4, §5, §6

Data set [5] in a line: High Throughput Metabolic Stability Panel, rat microsomes. The data set is classed as in vitro ADME. The note with it: 10 minute incubation, 0.5 μM, control compound expected range. The method, then:
as §1, §2, §3, §4, §5, §6

As usually defined, the IC50 is the concentration that gives 50% inhibition. `CCC[C@H](C(N)=O)[C@@H](CCC(F)(F)F)C(=O)N[C@H]1N=C(c2ccccc2)c2cccc3c2N(CCO3)C1=O` [Example 7, (2R,3S)—N-((6S)-5-Oxo-8-phenyl-2,3,5,6-tetrahydro[1,4]oxazino[2,3,4-jk][1,4]benzodiazepin-6-yl)-3-propyl-2-(3,3,3-trifluoropropyl)succinamide]: 14.8 nM corresponded to half-maximal inhibition in the data set with human Notch 3 (IC50). In addition, in the data set with TALL1, the “Antitumor Activity TALL1 (LCK)” value is 0.7.

Regarding `CCc1nn(CCCN2CCN(c3cccc(Cl)c3)CC2)c(=O)n1CCOc1ccccc1` [Nefazodone], the “Average Percent Remaining ± SD, Monkey” value in data set [1] came out at 0.6 ± 0.5%. Further, the “Average Percent Remaining ± SD, Human” value in data set [2] was 0.4 ± 0.4%. The “Average Percent Remaining ± SD, Mouse” value in data set [3] is listed as 0.4 ± 0.3%. Moreover, the “Average Percent Remaining ± SD, Dog” value in data set [4] is 0.4 ± 0.4%. Besides, the “Average Percent Remaining ± SD, Rat” value in data set [5] is recorded as 0.7 ± 0.6%.
